Here are results for eleven molecules from ChEMBL document CHEMBL1130585, “New antifungals selected by molecular topology” (1998).

Experiment [1] deals with Candida albicans. The experiment in a line: Compound was evaluated for inhibitory activity against Candida albicans; IA= Inactive. It counts as functional, organism-based.
For experiment [2], the system named is Saccharomyces cerevisiae. The experiment in a line: Compound was evaluated for inhibitory activity against Saccharomyces cerevisiae; IA = Inactive. The format is functional, organism-based.
The subject of experiment [3] is Saccharomyces cerevisiae. The experiment in a line: Compound was evaluated for inhibitory activity against Saccharomyces cerevisiae; IA= Inactive. The format is functional, organism-based.
Experiment [4] has as its system Saccharomyces cerevisiae. Nature of the experiment: Compound was evaluated for inhibitory activity against Saccharomyces cerevisiae; 2-3.2. The format is functional.
In experiment [5] the test system is Candida albicans. The experiment in a line: Compound was evaluated for inhibitory activity against Candida albicans; 2-3.2. The format is functional.
Experiment [6] has as its system Candida albicans. The experiment in a line: microbe, parasite or virus in culture.
For experiment [7], the system named is Saccharomyces cerevisiae. Nature of the experiment: microbe, parasite or virus in culture.
Experiment [8] deals with Candida albicans. The experiment in a line: Compound was evaluated for inhibitory activity against Candida albicans. It counts as functional.
Experiment [9] relates to Saccharomyces cerevisiae. The experiment in a line: Compound was evaluated for inhibitory activity against Saccharomyces cerevisiae. The format is functional.
In experiment [10] the test system is Candida albicans. Nature of the experiment: Compound was evaluated for inhibitory activity against Candida albicans; 3.2-4. The format is functional.
The subject of experiment [11] is Saccharomyces cerevisiae. The experiment in a line: Compound was evaluated for inhibitory activity against Saccharomyces cerevisiae; 3.2-4. It counts as functional.
Experiment [12] concerns Candida albicans. The experiment in a line: Compound was evaluated for inhibitory activity against Candida albicans; 4-6.4. The format is functional.
The subject of experiment [13] is Saccharomyces cerevisiae. Nature of the experiment: Compound was evaluated for inhibitory activity against Saccharomyces cerevisiae; 4-6.4. The format is functional.

Converted amounts (≈) assume the structure as drawn. The source made the active and inactive calls. No cut-off for these calls is given here.

With `Oc1c(I)cc(I)c2cccnc12`, the MIC result in the experiment on Candida albicans [1] and in the experiment on Saccharomyces cerevisiae [2] was “inactive” in each case.

As for `Brc1sc(Br)c(Br)c1Br`, the MIC result with Candida albicans [1] and with Saccharomyces cerevisiae [3] was “inactive” in each case.

For the molecule `BrCCc1c[nH]c2ccccc12`, the MIC in the experiment with Saccharomyces cerevisiae [4] and with Candida albicans [5] was 2 µg/mL (≈ 8.92 µM) each time.

With `O=C(Nc1ccccc1)c1ccccc1O` [SALICYLANILIDE], the MIC against Saccharomyces cerevisiae [4] and in the experiment on Candida albicans [5] was 2 µg/mL (≈ 9.38 µM) throughout.

For the molecule `Clc1ccc(COC(Cn2ccnc2)c2ccc(Cl)cc2Cl)c(Cl)c1` (centres undefined) [MICONAZOLE], the MIC with Candida albicans [6] was 1.6 µg/mL (≈ 3.84 µM); in the experiment on Saccharomyces cerevisiae [7], 1.6 µg/mL (≈ 3.84 µM); in the experiment on Candida albicans [8], less than 1.6 µg/mL; against Saccharomyces cerevisiae [9], less than 1.6 µg/mL.

`CCC(=O)O` [PROPIONIC ACID]: the MIC with Candida albicans [10] and with Saccharomyces cerevisiae [11] was 3.2 µg/mL (≈ 43.2 µM) in each case.

`Cc1c(Cc2c(C)n(C)n(-c3ccccc3)c2=O)c(=O)n(-c2ccccc2)n1C`: the MIC result with Candida albicans [1] and with Saccharomyces cerevisiae [2] was “inactive” throughout.

With `CC1(CBr)C2CCC1(CBr)C(=O)C2` (centres undefined), the MIC entry in the experiment on Candida albicans [1] and in the experiment with Saccharomyces cerevisiae [3] was “inactive” throughout.

Turning to `BrC1[C@H]2C[C@@H]3C[C@@H](C[C@H]1C3)C2` (some centres undefined), the MIC against Candida albicans [12] and against Saccharomyces cerevisiae [13] was 4 µg/mL (≈ 18.6 µM) each time.

On to `O=c1sc2sc(=O)sc2s1`, for which the MIC against Saccharomyces cerevisiae [4] and with Candida albicans [5] was 2 µg/mL (≈ 9.6 µM) in each case.

`[Cl-].[Cl-].c1ccc(-c2nn(-c3ccccc3)[n+](-c3ccc(-c4ccc(-[n+]5nc(-c6ccccc6)nn5-c5ccccc5)cc4)cc3)n2)cc1` [NEOTETRAZOLIUM CHLORIDE]: the MIC against Candida albicans [8] and against Saccharomyces cerevisiae [9] was less than 1.6 µg/mL in each case.
